Results on three molecules are retold here after PMC8042727, “Apoptosis-like cell death upon kinetoplastid induction by compounds isolated from the brown algae Dictyota spiralis” (Parasites & Vectors, 2021).

Each structure is given as a SMILES string.

Format in all cases: cell-based
The subject of data set [1] is Leishmania amazonensis. Description: Oxidative stress / ROS accumulation (CellROX Deep Red). The note with it: L. amazonensis, IC90, 24 h. As for the experimental part:
The reagent used for this assay was a fluorogenic probe to measure cellular oxidative stress upon oxidation by reactive oxygen species (ROS). To perform the test, cells were incubated with the compounds to be tested, at IC90 for 24 h. The cells were centrifuged and resuspended in a volume of 50 μl, following which CellROX™ Deep Red oxidative stress reagent (Thermo-Fisher Scientific) was added to 96-well plates at […]. The plates were then incubated for 30 min at 37 °C. After incubation, the results were analyzed by cell imaging using the Evos cell imaging system. Cells treated with different compounds were compared with untreated control cells and the positive control. Fluorescence intensity was also measured using the Enspire multimode plate reader at excitation/emission wavelengths of 640/665 nm. Accumulation ROS at the cellular level is a good indicator of oxidative stress and is precursor to a chain reaction leading damage at the cellular level to proteins, nucleic acids, lipids, membrane and organelles. These cellular alterations can lead to activation of the cell death process. As such, ROS play an important role in cell signaling and the apoptosis pathway. An intracellular excess of ROS can be detected by the cell-permeable CellROX™ Deep Red reagent, which is a fluorogenic ROS sensor.

In data set [2] the test system is Leishmania amazonensis promastigotes. Description: Mitochondrial membrane potential (JC-1). The note with it: L. amazonensis, IC90, 24 h, relative to negative control. On the procedure: Promastigotes of L. amazonensis (2 × 10^6 cells/ml) and epimastigotes (5 × 10^5cells/ml) of T. cruzi were incubated for 24 h in the presence of the compounds to be tested, at IC90 and 26 °C, following which the cells were centrifuged, resuspended and transferred to black bottom 96-well plate. A 10-μl aliquot of JC-1 reagent (JC-1 Mitochondrial Membrane Potential Assay Kit; Cayman Chemical, Ann Arbor, MI, USA) was added to each well and the plates were incubated for 30 min. The switch of fluorescence from red to green emitted by both forms of the dye (monomer and aggregate) was measured using the Enspire microplate reader (PerkinElmer) at excitation/emission wavelengths of 560/595 and 485/535 for red and green, respectively; the decrease of the ratio was calculated as the percentage relative to the negative control. Cells images were captured using the Evos cell imaging system (Thermo Fisher Scientific), which is a fully integrated digital inverted microscope, at a magnification of ×40 and ×100. Untreated cells are used as the negative control, and miltefosine and benznidazole were used as the positive control.
Disruption of mitochondrial functions induced by the incubation of L. amazonensis and T. cruzi with compounds 1–3 was evaluated using the mitochondrial membrane potential as a measure. JC-1 dye was used in this assay. In the case of normal mitochondrial membrane potential, the reactive dye will form aggregates that emit red fluorescence; a collapsed potential induces the monomeric form with green fluorescence. This parameter is expressed as the absolute red/green ratio of fluorescence. We considered the values of the negative controls to be the normal values, and therefore the collapse of mitochondrial membrane potential is expressed as a percentage (see Fig. 4a). This parameter is involved in energy storage and is an important indicator of cell health and viability.

Data set [3] can be described thus: Cytotoxicity on macrophages (AlamarBlue, 24 h). Particulars: mouse, J774A.1 macrophages, J774A.1, 24 h, read-out: CC50: murine macrophages. As for the experimental part:
Cytotoxicity of the tested molecules was evaluated after 24 h using macrophages of the murine cell line J774.A1 (American Type Culture Collection #TIB-67). The cells were maintained in DMEM medium at 37 °C in a 5% CO2 humidified incubator. The viability of the macrophages was determined with the AlamarBlue assay and the emitted fluorescence was assayed in an Enspire microplate reader (PerkinElmer Inc.) at 570/585 nm. Briefly, 50 µl of macrophages was placed in a 96-well flat bottom plate at a density of 2 × 10^5/ml in RPMI medium supplemented with 10% FBS without phenol. Cells were allowed to adhere for 15 min, and their progress was checked using a Leika inverted microscope (Leika Camera AG, Wetzlar, Germany). At the same time, a serially dilution of the test compounds was made in a deep 96-well plate with the same medium, and then 50 µl of each serially diluted molecule was added to each well of the 96-well flat bottom plate. Finally, 10% of AlamarBlue was added to each well. The plates were incubated at 37 °C in 5% CO2 for 24 h. Dose–response curves were plotted and the 50% cytotoxic concentrations (CC50) were obtained. The analyses were performed in triplicate.
Background: Resazurin is reduced to fluorescent resorufin, in cell work by metabolically active cells.

In data set [4] the test system is Leishmania amazonensis amastigotes. The data set is described as follows: Anti-amastigotes assay (intra-macrophagic stage, J774A.1). Particulars: for Selectivity index: CC50 murine macrophages / IC50 amastigote; for IC50: J774.A1, Leishmania amazonensis, intracellular in J774A.1, read-out: IC50: amastigote. As for the experimental part: The three molecules 1-3 were tested against the intra-macrophagic stage of L. amazonensis as previously described. Briefly, in a 96-well, flat-bottom plate, macrophages of the J774A.1 cell line (American Type Culture Collection #TIB-67) were cultured at a density of 2 × 10^5 cells/ml in RPMI 1640 medium supplemented with 10% heat-inactivated FBS and incubated for 1 h at 37 °C in a 5% CO2 atmosphere to allow almost complete attachment of the cells. The macrophages were then infected with L. amazonensis promastigotes in the stationary phase (7-day-old culture) at a ratio of 1:10 (macrophage:parasite) at a concentration of 2 × 10^6 cells/ml and incubated at 37 °C in 5% CO2 for 24 h. Wells were washed with medium to remove external promastigotes. Thereafter, the infected macrophages were treated with the serially diluted concentrations of the pure compounds for 24 h, following which the medium was removed carefully and replaced by 30 μl of new medium containing 0.05% sodium dodecyl sulfate and the plate shaken for 30 s. Subsequently, 170 μl of Schneider’s medium was added to each well to give a final volume of 200 μl, and 20 μl of AlamarBlue® was added to the plate; the plate was then incubated at 26 °C for 72 h, following which the plates were analyzed using the same protocol as for the promastigotes assay.

Data set [5] deals with Leishmania amazonensis promastigotes. The data set is described as follows: DNA condensation assay (Hoechst 33342 / PI). The note with it: L. amazonensis promastigotes, IC90, 24 h. On the procedure: Hoechst dye is a blue-fluorescent dye that stains condensed chromatin of apoptotic cells. To detect DNA condensation, the chromatin condensation/dead cell apoptosis kit was used (Invitrogen, Thermo Fisher Scientific, Waltham, MA, USA). Cells were incubated in the presence of the compounds to be tested at IC90. The IC90 values were determined using nonlinear regression of the AlamarBlue® curve. After 24 h of incubation, cells were harvested and resuspended in medium, following which 1 μl of Hoechst 33342 stock solution was added to parasites and incubated for 20 min. Results were analyzed by cell imaging using the Evos FL cell imaging system (Thermo Fisher Scientific). The experiments were repeated using a double-stain apoptosis detection kit (Hoechst 33342/PI; Thermo Fisher Scientific). […] A positive control was also tested: miltefosine (L. amazonensis) and benznidazole (T. cruzi).
DNA condensation is an important cellular event, providing evidence of apoptotic cell death. Hoechst dye is a blue-fluorescent dye that stains condensed chromatin. […] Also, using propidium iodine (PI), it is possible to distinguish dead cells, which stain red when PI penetrates the nucleus. The results of staining were evaluated using cell imaging. Different microscopy images are regrouped in Fig. 2 (for L. amazonensis) and Fig. 3 (for T. cruzi). […] A clear reduction in cell number is also evident.

Take `CC(C)=CCC[C@](C)(O)[C@@H]1CC[C@@H](C)[C@@H]2CC=C(C)[C@H]2[C@@H]1O` [Compound 1, pachydictyol C]: in data set [1], the “ROS accumulation (fluorescence vs negative control)” value was “more remarkable”. Besides, in data set [2], the “decrease in mitochondrial potential” value is on record as 34.0%. Besides, the CC50 (commonly the concentration at which the toxic effect on the cells reaches its halfway point) at 24 h in data set [3] was 37 ± 2.74 µM. In data set [4], the Selectivity index is listed as 37.76 and the IC50 (usually the concentration that gives 50% inhibition) was 0.97 ± 0.13 µM.

As for `C=C1CC[C@@H]([C@@](C)(O)CCC=C(C)C)[C@@H](O)[C@@H]2C(C)=CC[C@@H]12` [Compound 2, dictyol E], the “chromatin condensation / cell death stage (Hoechst/PI staining)” value in data set [5] is on record as “late apoptotic stage”. The “ROS accumulation (fluorescence vs negative control)” value in data set [1] was “slight increase in fluorescence but the increase was not significant”. Also, the “decrease in mitochondrial potential” value in data set [2] amounted to 40.7%. In data set [3], the CC50 at 24 h worked out at 52.1 ± 6.63 µM. In addition, in data set [4], the Selectivity index turned out to be 25.56 and the IC50 was 2.03 ± 0.22 µM.

As for `C=C(C)[C@H]1CC[C@]2(C)C[C@@H]3O[C@@]3(C)CC/C=C(\C)CC[C@@H]12` [Compound 3, 3,4-epoxy-7,18-dolabelladiene], in data set [5], the “chromatin condensation / cell death stage (Hoechst/PI staining)” value is “late apoptotic stage”. In addition, the “ROS accumulation (fluorescence vs negative control)” value in data set [1] is given as “more remarkable”. For the same molecule, the “decrease in mitochondrial potential” value in data set [2] is more than 80%. In data set [3], the CC50 at 24 h is 69.98 ± 0.13 µM. In addition, in data set [4], the Selectivity index is 18.02 and the IC50 came to 3.88 ± 0.17 µM.
